Assay results taken from patent US10738076B2, “Lanosterol prodrug compound and preparation method therefor and use thereof” (ZHONGSHAN OPHTHALMIC CENTER, SUN YAT-SEN UNIVERSITY, priority 2017, dated 2020).
“Also recorded” adds a separate entry of the source. Where two headings read alike, the source gives them in different places.

Tests used:
[1] = tested on: lens glutathione peroxidase (GSH-PX) activity; test: ultraviolet-induced cataract model, lens GSH-PX activity assay; format: in vivo, New Zealand rabbits; details: after 42 days of administration; for effect on lens GSH-PX activity compared to the other treatment groups: 026 vs kary uni p<0.05
Description: (§1) Adult New Zealand rabbits 2.0-2.5 kg, normal grade, male and female, a total of 25.
(§2) The experimental rabbits were randomly divided into 5 groups with 5 rabbits per group.
(§3) 1) Normal control group (NC): normal feeding, no drug administration.
(§4) 2) Model control group (MC): 313 nm UV irradiation for 24 hours to make model, then drug-free blank eye drops was dripped to the right eye 3 times every day for 42 days.
(§5) 3) Positive control group (PC): 313 nm UV irradiation for 24 hours to make model, then kary uni eye drops (Santen Pharmaceutical Co., Ltd in Japan) was dripped into the right eye 3 times every day for 42 days.
(§6) 4) Lanosterol eye drops treatment group (LT): 313 nm UV irradiation for 24 hours to make model, then lanosterol eye drops was dripped into the right eye 3 times every day for 42 days.
(§7) 5) Lanosterol prodrug 026 eye drops treatment group (026): 313 nm UV irradiation for 24 hours to make model, then the lanosterol prodrug 026 eye drops was dripped into the right eye 3 times every day for 42 days.
(§8) 3) Glutathione peroxidase (GSH-PX) activity assay: GSH-PX activity of the isolated rabbit lens in each group was determined by the method provided in the specification of GSH-PX activity detection kit (Nanjing Jiancheng Bioengineering Institute). The experimental data was analyzed by One-Way ANOVA with SPSS statistical software. The LSD method was used to compare the groups, and the statistical difference level was p<0.05.

[2] = tested on: ultraviolet-induced New Zealand rabbit cataract model; test: ultraviolet-induced cataract model, lens transparency test in vitro; format: in vivo, New Zealand rabbits; details: after 42 days of administration
Description: as §1, §2, §3, §4, §5, §6, §7
2) lens transparency test in vitro: on the last day, the animal's eyeball was dissected, the lens containing the capsule was completely separated, and the lens was placed on a grid paper (2.12×2.12 mm).

[3] = tested on: cataract; details: background, published in Nature; cited from earlier work
[4] = tested on: ultraviolet-induced New Zealand rabbit cataract model; test: ultraviolet-induced cataract model, slit lamp observation; format: in vivo, New Zealand rabbits; details: ultraviolet (313 nm, 24 hours) model, eye drops right eye 3 times every day, 42 days, compared with pre-dose
Description: as §1, §2, §3, §4, §5, §6, §7

[5] = ophthalmic drug penetration and drug conversion to lanosterol in vivo (aqueous humor concentration after eye drops); set-up: species or system New Zealand white rabbits
Description: In this study, New Zealand white rabbits (body weight was more than 2 kg, age was more than 12 weeks) were used as experimental animals. Each compound was studied with two New Zealand white rabbits. Each rabbit was instilled with […] eye drops in each eyes three eyes were used to collect aqueous humor samples and one eye was used as a backup. […] After the eye drops was dripped into the rabbit's eyes, the anterior aqueous humor was collected at 0.5, 2, 4 and 6 hours after administration. The volume of each sample was not more than 50 μL. Each animal was given mild anesthesia before collecting samples. Three samples were collected at every time point. The collected aqueous humor samples were stored in dry ice immediately after collection or stored in a refrigerator at −80±10° C. After the sample collection, the animals were euthanized. The concentration of the compound in each sample was determined using a triple quadrupole mass spectrometer (API 4000).

[6] = tested on: pre-formed lens protein aggregates; details: in vitro at the cellular level; background, published in Nature; cited from earlier work
[7] = tested on: sodium selenite-induced neonatal New Zealand rabbit cataract model; test: sodium selenite-induced cataract model, lens transparency test in vitro; format: in vivo, neonatal New Zealand rabbits; details: after 42 days of administration
Description: (§9) P7 days old neonatal New Zealand rabbits, normal grade, and 5 young rabbits per litter were breast-fed with a mother rabbit.
(§10) The experimental young rabbits were randomly divided into 5 groups with 5 rabbits per group.
(§11) 1) Normal control group (NC): in the P10 day, young rabbits were injected subcutaneously with 0.25 mL physiological saline from the neck, and were not administered after the P15 day.
(§12) 2) Model control group (MC): in the P10 day, young rabbits were injected subcutaneously with sodium selenite solution (in physiological saline) at 20 μmol/kg body weight, and after the P15 day, drug-free blank eyes drops was dripped into the right eye 3 times every day for 42 days.
as §12, with “3) Positive” for “2) Model”, “(PC):” for “(MC):”, “kary uni eye” for “drug-free blank eyes”, “drops (Santen Pharmaceutical Co., Ltd in Japan)” for “drops”
(§13) 4) Lanosterol eye drops treatment group (LT): in the P10 day, young rabbits were injected subcutaneously with sodium selenite solution (in physiological saline) at 20 μmol/kg body weight, and after the P15 day, lanosterol eye drops was dripped into the right eye 3 times every day for 42 days.
as §13, with “5)” for “4)”, “Lanosterol prodrug 026” for “Lanosterol”, “(026):” for “(LT):”, “lanosterol prodrug 026” for “lanosterol”
2) Lens transparency test in vitro: on the last day, the animal's eyeball was dissected, the lens containing the capsule was completely separated, and the lens was placed on a grid paper (2.12×2.12 mm).

[8] = tested on: lens glutathione peroxidase (GSH-PX) activity; test: sodium selenite-induced cataract model, lens GSH-PX activity assay; format: in vivo, neonatal New Zealand rabbits; details: after 42 days of administration; for effect on lens GSH-PX activity compared to the other treatment groups: 026 vs kary uni p<0.01
Description: as §9, §10, §11, §12
as §12, with “3) Positive” for “2) Model”, “(PC):” for “(MC):”, “kary uni eye” for “drug-free blank eyes”, “drops (Santen Pharmaceutical Co., Ltd in Japan)” for “drops”
as §13
as §13, with “5)” for “4)”, “Lanosterol prodrug 026” for “Lanosterol”, “(026):” for “(LT):”, “lanosterol prodrug 026” for “lanosterol”
as §8

[9] = tested on: sodium selenite-induced neonatal New Zealand rabbit cataract model; test: sodium selenite-induced cataract model, slit lamp observation; format: in vivo, neonatal New Zealand rabbits; details: eye drops right eye 3 times every day, 42 days, compared with pre-dose
Description: as §9, §10, §11, §12
as §12, with “3) Positive” for “2) Model”, “(PC):” for “(MC):”, “kary uni eye” for “drug-free blank eyes”, “drops (Santen Pharmaceutical Co., Ltd in Japan)” for “drops”
4) Lanosterol eye drops treatment group (LT): in the P10 day, young rabbits were injected subcutaneously with sodium selenite solution (in physiological saline) at 20 μmol/kg body weight, and after the P15 day, lanosterol eye drops was dripped into the right eye 3 times every day for 42 days. […]

[10] = 026 and kary uni p<0.01, lanosterol p>0.05
[11] = 0.5 hour after 250 nmol dripped into each eye of New Zealand white rabbit
[12] = 2 hours after 250 nmol dripped into each eye of New Zealand white rabbit
[13] = 4 hours after 250 nmol dripped into each eye of New Zealand white rabbit
[14] = 6 hours after 250 nmol dripped into each eye of New Zealand white rabbit
[15] = in vivo, 250 nmol per eye, 0.5 hour after 250 nmol dripped into each eye of New Zealand white rabbit, read-out: Average concentration of the dripped compound itself in the aqueous humor
[16] = in vivo, 250 nmol per eye, 2 hours after 250 nmol dripped into each eye of New Zealand white rabbit, read-out: Average concentration of the dripped compound itself in the aqueous humor
[17] = 026 and kary uni p<0.01, lanosterol p>0.05, listed as lanosterol prodrug 026
[18] = listed as lanosterol prodrug 026

SMILES: CC(C)=CCC[C@@H](C)[C@H]1CC[C@@]2(C)C3=C(CC[C@]12C)[C@@]1(C)CC[C@H](O)C(C)(C)[C@@H]1CC3 [Lanosterol]
- lens GSH-PX activity compared to the MC group [1, 10]: no statistical difference compared to the MC group
- effect on lens GSH-PX activity compared to the other treatment groups [1]: significantly lower than that of 026 and kary uni
- lens transparency of the administered right eye compared to the left eye (self-control) [2]: no significant change in lens transparency
- effect on cataract and lens transparency in vivo [3]: can reverse the condition of cataract
- cataract symptoms, slit lamp observation [4]: did not change significantly
- concentration at 0.5 h ([5]; aqueous humor, topical, 250 nmol per eye, 0.5 hour after 250 nmol dripped into each eye of New Zealand white rabbit, read-out: Average concentration of the dripped compound itself in the aqueous humor): 106 nM
- concentration at 2 h ([5]; aqueous humor, topical, 250 nmol per eye, 2 hours after 250 nmol dripped into each eye of New Zealand white rabbit, read-out: Average concentration of the dripped compound itself in the aqueous humor): 496 nM
- concentration at 4 h ([5]; aqueous humor, topical, 250 nmol per eye, 4 hours after 250 nmol dripped into each eye of New Zealand white rabbit, read-out: Average concentration of the dripped compound itself in the aqueous humor): 300 nM
- concentration at 6 h ([5]; aqueous humor, topical, 250 nmol per eye, 6 hours after 250 nmol dripped into each eye of New Zealand white rabbit, read-out: Average concentration of the dripped compound itself in the aqueous humor): 225 nM
- penetration into the aqueous humor / permeability ([5]; eye drops, rabbit, in words): could penetrate into the aqueous humor
- effect on pre-formed lens protein aggregates [6]: significantly reduce pre-formed lens protein aggregates
- lens transparency of the administered right eye compared to the left eye (self-control) [7]: no significant change in lens transparency
- lens GSH-PX activity compared to the MC group [8, 10]: no statistical difference compared to the MC group
- effect on lens GSH-PX activity compared to the other treatment groups [8]: significantly lower than that of 026 and kary uni
- cataract symptoms, slit lamp observation [9]: did not change significantly

SMILES: CC(C)=CCC[C@@H](C)[C@H]1CC[C@@]2(C)C3=C(CC[C@]12C)[C@@]1(C)CC[C@H](OC(=O)c2ccc([N+](=O)[O-])cc2)C(C)(C)C1CC3 (stereo partly shown) [Compound 4]
- Average concentration of the dripped compound itself in the aqueous humor [5, 11]: BQL
- Average concentration of the dripped compound itself in the aqueous humor [5, 12]: BQL
- Average concentration of the dripped compound itself in the aqueous humor [5, 13]: BQL
- Average concentration of the dripped compound itself in the aqueous humor [5, 14]: BQL

SMILES: CC(=O)Oc1ccccc1C(=O)O[C@H]1CC[C@]2(C)C3=C(CCC2C1(C)C)[C@]1(C)CC[C@H]([C@H](C)CCC=C(C)C)[C@@]1(C)CC3 (stereo partly shown) [Compound 12]
- AUC (exposure amount) of the dripped compound itself in the aqueous humor ([5]; 250 nmol dripped into each eye of New Zealand white rabbit): BQL
- Average concentration of the dripped compound itself in the aqueous humor [5, 13]: BQL
- Average concentration of the dripped compound itself in the aqueous humor [5, 14]: BQL
- concentration at 0.5 h [5, 15]: 60 nM
- concentration at 2 h [5, 16]: 15.6 nM

SMILES: CC(C)=CCC[C@@H](C)[C@H]1CC[C@@]2(C)C3=C(CC[C@]12C)[C@@]1(C)CC[C@H](OC(=O)c2ccno2)C(C)(C)C1CC3 (stereo partly shown) [Compound 9]
- Average concentration of the dripped compound itself in the aqueous humor [5, 11]: BQL
- Average concentration of the dripped compound itself in the aqueous humor [5, 12]: BQL

SMILES: CC(C)=CCC[C@@H](C)[C@H]1CC[C@@]2(C)C3=C(CC[C@]12C)[C@@]1(C)CC[C@H](OC(=O)c2ncon2)C(C)(C)C1CC3 (stereo partly shown) [Compound 10]
- Average concentration of the dripped compound itself in the aqueous humor [5, 11]: BQL
- concentration at 2 h [5, 16]: 37.9 nM

SMILES: COC(=O)[C@H](C)NP(=O)(Oc1ccccc1)O[C@H]1CC[C@]2(C)C3=C(CCC2C1(C)C)[C@]1(C)CC[C@H]([C@H](C)CCC=C(C)C)[C@@]1(C)CC3 (stereo partly shown) [Compound 1]
- Average concentration of Lanosterol in the aqueous humor after the prodrug was dripped ([5]; 0.5 hour after 250 nmol prodrug dripped into each eye of New Zealand white rabbit): BQL
- Average concentration of Lanosterol in the aqueous humor after the prodrug was dripped ([5]; 2 hours after 250 nmol prodrug dripped into each eye of New Zealand white rabbit): BQL
- Average concentration of the dripped compound itself in the aqueous humor [5, 14]: BQL
- concentration at 0.5 h [5, 15]: 7.5 nM
- concentration at 2 h [5, 16]: 8.6 nM

SMILES: CC(C)=CCC[C@@H](C)[C@H]1CC[C@@]2(C)C3=C(CC[C@]12C)[C@@]1(C)CC[C@H](OC(=O)c2ccccc2O)C(C)(C)C1CC3 (stereo partly shown) [Compound 8]
- lens GSH-PX activity compared to the MC group [1, 17]: could increase the GSH-PX activity of the lens; also recorded: improve lens transparency and lens GSH-PX activity
- effect on lens GSH-PX activity compared to the other treatment groups [1]: better than that of kary uni
- lens transparency of the right eye compared to the MC group [2]: significantly higher than that of the MC group
- lens transparency of the right eye compared to the NC group [2]: still lower than that of the NC group
- lens transparency of the administered right eye compared to the left eye (self-control) [2, 18]: significantly higher than that of the left eye; also recorded: improve lens transparency
- cataract symptoms, slit lamp observation [4, 18]: cataract symptoms were significantly reduced; also recorded: could alleviate the cataract symptoms
- Average concentration of the dripped compound itself in the aqueous humor [5, 14]: BQL
- concentration at 0.5 h [5, 15]: 41 nM
- concentration at 2 h [5, 16]: 33.3 nM
- concentration at 4 h ([5]; in vivo, 250 nmol per eye, 4 hours after 250 nmol dripped into each eye of New Zealand white rabbit, read-out: Average concentration of the dripped compound itself in the aqueous humor): 25.5 nM
- lens transparency of the right eye compared to the MC group [7]: significantly higher than that of the MC group
- lens transparency of the right eye compared to the NC group [7]: still lower than that of the NC group
- lens transparency of the administered right eye compared to the left eye (self-control) [7, 18]: significantly higher than that of the left eye; also recorded: improve lens transparency
- lens GSH-PX activity compared to the MC group [8, 17]: could increase the GSH-PX activity of the lens; also recorded: improve lens transparency and lens GSH-PX activity
- effect on lens GSH-PX activity compared to the other treatment groups [8]: better than that of kary uni
- cataract symptoms, slit lamp observation [9, 18]: cataract symptoms were significantly reduced; also recorded: could alleviate the cataract symptoms
